Data: patent EP2138169B1, “Transdermal delivery system of hormones without penetration enhancers” (Bayer Intellectual Property GmbH, priority 2003, dated 2005)

Key:
clinical = assay: clinical; set-up: species or system women; details: female, human, in vivo
Description: The effect on ovulation inhibition, serum drug concentrations and safety of a patch of the invention was investigated in a selected population of women. The study design was based on the requirements of the EMEA quideline for clinical studies with contraceptive steroids (Commitee for Proprietary Medicinal Products, CPMP/EWP 519/98).
Arcare MA-24A® is a polyisobutylene based adhesive from Adhesive Research.
The treatment phase includes a period of two menstrual cycles. The first treatment in the first cycle began one day after the volunteers started menstruating in this cycle by application of a patch. A total of three test patches were applied in intervals of 7 days between, such as application at days 1, 8 and 15 of the first cycle - each at different application sites- during each treatment cycle. Each patch was worn for 7 days, then replaced with a new patch to complete a total of 21 days of continuous use. This was followed by a 7-day treatment-free interval before the next treatment period started with a total of three patches applied, each applied with an interval of 7 days. If the patches were lost or became more than 40% detached, a new patch was applied.
The AUC was calculated according to the linear trapezoidal rule. […]
After incubation and centrifugation, the resultant precipitate was redissolved with NaOH. The assay has a lower limit of quantification of approx. 250 pg/ml.

[1] = cited from earlier work

Cmax (clinical; Cmax (mean) of ethinyl estradiol (EE))	Tmax (clinical; Tmax (mean) of ethinyl estradiol (EE))	SMILES	Maximal plasma levels ([1]; US 5,376,377, ethylene vinyl acrylate adhesive layer, Gestodene and ethinylestradiol)	maximal plasma levels of Gestodene ([1]; WO 92/07590, transdermal compositions with penetration enhancers, Gestodene and an estrogen)
0.0456 ng/mL	48 h	C#C[C@]1(O)CC[C@H]2[C@@H]3CCc4cc(O)ccc4[C@H]3CC[C@@]21C [Ethinylestradiol]		
		C#C[C@]1(O)C=C[C@H]2[C@@H]3CCC4=CC(=O)CC[C@@H]4[C@H]3CC[C@@]21CC [Gestodene, 13β-Ethyl-17α-ethynyl-17β-hydroxy-4,15-gonadien-3-one]	about 0.8 ng/ml	about 0.9 ng/ml
